Structures can show the parent of a compound that is named as a salt. Where two headings read alike, the source gives them in different places.
System: PDE4 enzyme of human origin
Assay: PDE4-inhibiting activity on an enzyme preparation obtained from the U937 cell line
Type: biochemical
Experimental: In the case of the PDE4 enzymes, this value is compared with that of rolipram, a specific PDE4 inhibitor. […] Measurement of the enzyme activity of the different types of PDE, and especially of the PDE4 enzymes, is then carried out according to a method adapted from W. J. Thompson, ibidem.

Row | SMILES | IC50 | IC50 (listed as 7B)
1 | Cc1cc2c3c(c1)C(c1ccccc1)=NC(n1c(C)nc4cc(C(=O)O)ccc4c1=O)C(=O)N3CC2 (racemic) [Example 7, 2-methyl-3-(9-methyl-4-oxo-1-phenyl-3,4,6,7-tetrahydro-[1,4]diazepino[6,7,1-hi]indol-3-yl)-4-oxo-3,4-dihydroquinazoline-7-carboxylic acid] | 52 nM | 57 nM
2 | Cc1cc2c3c(c1)C(c1ccccc1)=N[C@H](n1c(C)nc4cc(C(=O)O)ccc4c1=O)C(=O)N3CC2 [7D(R), (3R)-2-methyl-3-(9-methyl-4-oxo-1-phenyl-3,4,6,7-tetrahydro[1,4]diazepino[6,7,1-hi]indol-3-yl)-4-oxo-3,4-dihydroquinazoline-7-carboxylic acid] | 982 nM | 
3 | Cc1cc2c3c(c1)C(c1ccccc1)=N[C@@H](n1c(C)nc4cc(C(=O)O)ccc4c1=O)C(=O)N3CC2 [7E(S), (3S)-2-methyl-3-(9-methyl-4-oxo-1-phenyl-3,4,6,7-tetrahydro[1,4]diazepino[6,7,1-hi]indol-3-yl)-4-oxo-3,4-dihydroquinazoline-7-carboxylic acid] | 35 nM | 
4 | Cc1nc2ccccc2c(=O)n1[C@@H]1N=C(c2ccccc2)c2cccc3c2N(CC3)C1=O [Example 1, (3S)-3-(2-methyl-4-oxo-4H-quinazolin-3-yl)-1-phenyl-6,7-dihydro-3H[1,4]diazepino[6,7,1-hi]indol-4-one] | 448 nM | 
5 | Cc1cc2c3c(c1)C(c1ccccc1)=NC(n1c(C)nc4ccccc4c1=O)C(=O)N3CC2 (stereo not shown) [Example 2, 9-methyl-3-(2-methyl-4-oxo-4H-quinazolin-3-yl)-1-phenyl-6,7-dihydro-3H-[1,4]diazepino [6,7,1-hi] indol-4-one] | 146 nM | 
6 | COc1cc2c3c(c1)C(c1ccccc1)=NC(n1c(C)nc4ccccc4c1=O)C(=O)N3CC2 (stereo not shown) [Example 2A, 9-methoxy-3-(2-methyl-4-oxo-4H-quinazolin-3-yl)-1-phenyl-6,7-dihydro-3H-[1,4]diazepino [6,7,1-hi] indol-4-one] | 183 nM | 
7 | COC(=O)c1ccc2c(=O)n(C3N=C(c4ccccc4)c4cc(OC)cc5c4N(CC5)C3=O)c(C)nc2c1 (stereo not shown) [Example 2B, Methyl 2-methyl-3-(9-methoxy-4-oxo-1-phenyl-3,4,6,7-tetrahydro[1,4]diazepino[6,7,1-hi]indol-3-yl)-4-oxo-3,4-dihydroquinazoline-7-carboxylate] | 67 nM | 
8 | COc1cc2c3c(c1)C(c1ccccc1)=NC(n1c(C)nc4cc(C(=O)O)ccc4c1=O)C(=O)N3CC2 (stereo not shown) [Example 2C, 2-methyl-3-(9-methoxy-4-oxo-1-phenyl-3,4,6,7-tetrahydro[1,4]diazepino[6,7,1-hi]indol-3-yl)-4-oxo-3,4-dihydroquinazoline-7-carboxylic acid] | 108 nM | 
9 | Cc1cc2c3c(c1)C(c1ccccc1)=N[C@@H](n1c(C)nc4cccc(C)c4c1=O)C(=O)N3CC2 [Example 3, (3S)-9-methyl-3-(2,5-dimethyl-4-oxo-4H-quinazolin-3-yl)-1-ph enyl-6,7-dihydro-3H-[1,4]-diazepino[6,7,1-hi]indol-4-one] | 141 nM | 
10 | Cc1cc2c3c(c1)C(c1ccccc1)=N[C@@H](n1c(C)nc4ccc(C)cc4c1=O)C(=O)N3CC2 [Example 4, (3S)-9-methyl-3-(2,6-dimethyl-4-oxo-4H-quinazolin-3-yl)-1-phenyl-6,7-dihydro-3H-[1,4]diazepino[6,7,1-hi]indol-4-one] | 553 nM | 
11 | Cc1cc2c3c(c1)C(c1ccccc1)=N[C@@H](n1c(C)nc4c(C)cccc4c1=O)C(=O)N3CC2 [Example 5, (3S)-9-methyl-3-(2,8-dimethyl-4-oxo-4H-quinazolin-3-yl)-1-ph enyl-6,7-dihydro-3H-[1,4]diazepino[6,7,1-hi]indol-4-one] | 832 nM | 
12 | COc1cccc2nc(C)n(C3N=C(c4ccccc4)c4cc(C)cc5c4N(CC5)C3=O)c(=O)c12 (stereo not shown) [Example 6, 3-(5-methoxy-2-methyl-4-oxo-4H-quinazolin-3-yl)-9-methyl-1-phenyl-6,7-dihydro-3H-[1,4]diazepino[6,7,1-hi]indol-4-one] | 3020 nM | 
13 | COc1ccc2c(=O)n(C3N=C(c4ccccc4)c4cc(C)cc5c4N(CC5)C3=O)c(C)nc2c1 (stereo not shown) [Example 6A, 3-(7-methoxy-2-methyl-4-oxo-4H-quinazolin-3-yl)-9-methyl-1-phenyl-6,7-dihydro-3H-[1,4]-diazepino[6,7,1-hi]indol-4-one] | 133 nM | 
14 | COc1ccc2nc(C)n(C3N=C(c4ccccc4)c4cc(C)cc5c4N(CC5)C3=O)c(=O)c2c1 (stereo not shown) [Example 6B, 3-(6-methoxy-2-methyl-4-oxo-4H-quinazolin-3-yl)-9-methyl-1-phenyl-6,7-dihydro-3H-[1,4]-diazepino[6,7,1-hi]indol-4-one] | 1420 nM | 
15 | Cc1cc2c3c(c1)C(c1ccccc1)=NC(n1c(C)nc4ccc(Br)cc4c1=O)C(=O)N3CC2 (stereo not shown) [Example 6C, 3-(6-bromo-2-methyl-4-oxo-4H-quinazolin-3-yl)-9-methyl-1-phenyl-6,7-dihydro-3H-[1,4]diazepino-[6,7,1-hi]indol-4-one] | 838 nM | 
16 | Cc1cc2c3c(c1)C(c1ccccc1)=NC(n1c(C)nc4cccc(CO)c4c1=O)C(=O)N3CC2 (stereo not shown) [Example 6D, 3-(5-hydroxymethyl-2-methyl-4-oxo-4H-quinazolin-3-yl)-9-methyl-1-phenyl-6,7-dibydro-3H-[1,4]-diazepino[6,7,1-hi]indol-4-one] | 372 nM | 
17 | Cc1cc2c3c(c1)C(c1ccccc1)=NC(n1c(C)nc4cccc(C(=O)OC(C)(C)C)c4c1=O)C(=O)N3CC2 (stereo not shown) [Example 6E, tert-Butyl 2-methyl-3-(9-methyl-4-oxo-1-phenyl-3,4,6,7-tetrahydro-[1,4]diazepino[6,7,1-hi]indol-3-yl)-4-oxo-3,4-dihydroquinazoline-5-carboxylate] | > 100000 nM | 
18 | Cc1cc2c3c(c1)C(c1ccccc1)=NC(n1c(C)nc4cccc(C(=O)O)c4c1=O)C(=O)N3CC2 (stereo not shown) [Example 6F, 2-methyl-3-(9-methyl-4-oxo-1-phenyl-3,4,6,7-tetrahydro[1,4]diazepino[6,7,1-hi]indol-3-yl)-4-oxo-3,4-dihydroquinazoline-5-carboxylic acid] | > 100000 nM | 
19 | COC(=O)c1ccc2c(=O)n(C3N=C(c4ccccc4)c4cc(C)cc5c4N(CC5)C3=O)c(C)nc2c1 (stereo not shown) [Example 7A, Methyl 2-methyl-3-(9-methyl-4-oxo-1-phenyl-3,4,6,7-tetrahydro-[1,4]diazepino[6,7,1-hi]indol-3-yl)-4-oxo-3,4-dihydroquinazoline-7-carboxylate] | 157 nM | 
20 | Cc1cc2c3c(c1)C(c1ccccc1)=NC(n1c(C)nc4cc(C(=O)O)ccc4c1=O)C(=O)N3CC2 [Example 7C, Salt of 2-methyl-3-(9-methyl-4-oxo-1-phenyl-3,4,6,7-tetrahydro[1,4]diazepino[6,7,1-hi]indol-3-yl)-4-oxo-3,4-dihydroquin azoline-7-carboxylic acid with D-glucamine] | 66 nM | 
21 | Cc1cc2c3c(c1)C(c1ccccc1)=NC(n1c(C)nc4cc(C(N)=O)ccc4c1=O)C(=O)N3CC2 (stereo not shown) [Example 8, 2-methyl-3-(9-methyl-4-oxo-1-phenyl-3,4,6,7-tetrahydro-[1,4]diazepino[6,7,1-hi]indol-3-yl)-4-oxo-3,4-dihydroquinazoline-7-carboxamide] | 50 nM | 
22 | Cc1cc2c3c(c1)C(c1ccccc1)=NC(n1c(C)nc4cc(-c5nnn[nH]5)ccc4c1=O)C(=O)N3CC2 (stereo not shown) [Example 8B] | 28 nM | 
23 | CNC(=O)c1ccc2c(=O)n(C3N=C(c4ccccc4)c4cc(C)cc5c4N(CC5)C3=O)c(C)nc2c1 (stereo not shown) [Example 9, 2-methyl-3-(9-methyl-4-oxo-1-phenyl-3,4,6,7-tetrahydro-[1,4]diazepino[6,7,1-hi]indol-3-yl)-4-oxo-3,4-dihydroquinazoline-7-(N-methylcarboxamide)] | 63 nM | 
24 | Cc1cc2c3c(c1)C(c1ccccc1)=NC(n1c(C)nc4cc(C(=O)N(C)C)ccc4c1=O)C(=O)N3CC2 (stereo not shown) [Example 9A, 2-methyl-3-(9-methyl-4-oxo-1-phenyl-3,4,6,7-tetrahydro[1,4]diazepino[6,7,1-hi]indol-3-yl)-4-oxo-3,4dihydroquinazoline-7-N-dimethylearboxamide] | 122 nM | 
25 | Cc1cc2c3c(c1)C(c1ccccc1)=NC(n1c(C)nc4cc(C(=O)NCCN5CCOCC5)ccc4c1=O)C(=O)N3CC2 (stereo not shown) [Example 9B, 2-methyl-3-(9-methyl-4-oxo-1-phenyl-3,4,6,7-tetrahydro[1,4]diazepino[6,7,1-hi]indol-3-yl) 4-oxo-3,4-dihydroquinazoline-7-carboxylic acid (2-morpholin-4-yl-ethyl)amide] | 95 nM | 
26 | Cc1cc2c3c(c1)C(c1ccccc1)=NC(n1c(C)nc4cc(C(=O)NCCCN5CCOCC5)ccc4c1=O)C(=O)N3CC2 (stereo not shown) [Example 9C] | 69 nM | 
27 | Cc1cc2c3c(c1)C(c1ccccc1)=NC(n1c(C)nc4cc(C(=O)NCCN)ccc4c1=O)C(=O)N3CC2 (stereo not shown) [Example 9D, 2-methyl-3-(9-methyl-4-oxo-1-phenyl-3,4,6,7-tetrahydro[1,4]diazepino[6,7,1-hi]indol-3-yl)-4-oxo-3,4-dihydroquinazoline-7-(2-amino)ethylcarboxamide] | 119 nM | 
28 | Cc1cc2c3c(c1)C(c1ccccc1)=NC(n1c(C)nc4cc(C(=O)N5CCN(CCO)CC5)ccc4c1=O)C(=O)N3CC2 (stereo not shown) [Example 9F, 3-{7-[4-(2-hydroxyethyl)piperazine-1-carbonyl]-2-methyl-4-oxo-4H-quinazolin-3-yl}-9-methyl-1-phenyl-6,7-dihydro-3H-[1,4]diazepino[6,7,1-hi]indol-4-one] | 192 nM | 
29 | Cc1cc2c3c(c1)C(c1ccccc1)=NC(n1c(C)nc4cc(C(=O)N5CCN(CCO)CC5)ccc4c1=O)C(=O)N3CC2 (stereo not shown) [Example 9G] | 137 nM | 
30 | COC(=O)[C@H](CCCCN)NC(=O)c1ccc2c(=O)n(C3N=C(c4ccccc4)c4cc(C)cc5c4N(CC5)C3=O)c(C)nc2c1 (stereo partly drawn) [Example 9I, Methyl (2S)-6-amino-2-{[2-methyl-3-(9-methyl-4-oxo-1-phenyl-3,4,6,7-tetrahydro-[1,4]diazepino[6,7,1-hi]indol-3-yl)-4-oxo-3,4-dihydroquinazolin-7-carbonyl]amino}hexanoate] | 119 nM | 

— patent US6239130A, “Phosphodiesterase 4-inhibiting diazepinoindolones” (Warner-Lambert Company, priority 1997, dated 2001)
